# Data as given in patent US10005824B2, “Selective PYY compounds and uses thereof” (Novo Nordisk A/S, priority 2015, dated 2018).
# Where two headings read alike, the source gives them in different places.
# Legend:
# [1] = target: T1, human Y1 receptor (Homo sapiens, UniProt P25929); experiment: Scintillation proximity assay (SPA) receptor binding, Y1
# T1 construct: expressed in transfected cells; host or cells: BHK-21 clone 6-482-8, IPTG-induced (membrane preparation)
# T1 sequence (P25929 1-384): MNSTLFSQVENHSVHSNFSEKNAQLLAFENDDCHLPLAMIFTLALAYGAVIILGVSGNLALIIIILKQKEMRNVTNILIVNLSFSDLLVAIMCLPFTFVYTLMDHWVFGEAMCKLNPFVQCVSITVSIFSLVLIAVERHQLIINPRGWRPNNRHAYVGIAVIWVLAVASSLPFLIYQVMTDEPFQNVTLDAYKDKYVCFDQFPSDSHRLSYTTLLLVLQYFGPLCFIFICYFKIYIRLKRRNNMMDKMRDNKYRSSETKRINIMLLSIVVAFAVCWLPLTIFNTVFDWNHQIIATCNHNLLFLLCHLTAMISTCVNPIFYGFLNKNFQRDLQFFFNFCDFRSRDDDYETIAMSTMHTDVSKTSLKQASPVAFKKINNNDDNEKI
# Procedure: (§1) The purpose of this example is to test the in vitro binding of the PYY compounds to the Y1, Y2, Y4 and Y5 receptor subtypes, respectively. The receptor binding affinity is a measure of affinity of a compound for the human Y1, Y2, Y4 and Y5 receptor subtypes, respectively.
# (§2) Scintillation Proximity Assay (SPA)
# (§3) NPY-Receptor Expressing Cell Lines.
# (§4) All cells were cultured at +37° C. in a humidified atmosphere with 5% CO2. […] CHO-K1 cells stably expressing the human Y2 receptor (P49146, NPY2R_HUMAN, Uniprot) were cultured in DMEM F-12 with 10% FBS, 1% P/S, 150 μg/ml Hygromycin B and 10 μg/ml Puromycin antibiotic. CHO-K1 cells stably expressing the human Y4 receptor (P50391, NPY4R_HUMAN, Uniprot) were cultured in DMEM F-12 with 10% FBS, 1% P/S, 10 μg/ml Puromycin. HEK-293 cells stably expressing the human Y5 receptor (Q15761, NPY5R_HUMAN, Uniprot) were cultured in DMEM F-12 medium containing 10% FBS, 1% Penicillin-Streptomycin, 250 μg/ml G418 and 1 μg/ml puromycin.
# (§5) The homogenate was centrifuged at 35000 g using an ultracentrifuge for 10 minutes at +4° C. and the supernatant was discarded and fresh homogenization buffer added. Homogenization of the pellet was repeated a total of three times.
# (§6) Human Y receptor SPA binding assay were performed in white 96-well plates in a total volume of 200 μl per well.
# (§7) Plates were sealed and incubated at +25° C. for 2 hours in a plate shaker set at 400 rpm and thereafter centrifuged at 1500 rpm for 10 minutes prior to reading of luminescence on a microplate scintillation and luminescence counter. […] Displacement of radioligand was measured as reduction in luminescence and IC50 values were calculated by nonlinear regression analysis of sigmoidal dose-response curves.
# [2] = target: T2, human NPY Y2 receptor (Homo sapiens, UniProt P49146); experiment: Actone functional potency assay (Y2 in vitro potency, whole cell); type: cell-based
# T2 construct: host or cells: HEK-293 cells that also express a cAMP-sensitive calcium channel
# T2 sequence (P49146 1-381): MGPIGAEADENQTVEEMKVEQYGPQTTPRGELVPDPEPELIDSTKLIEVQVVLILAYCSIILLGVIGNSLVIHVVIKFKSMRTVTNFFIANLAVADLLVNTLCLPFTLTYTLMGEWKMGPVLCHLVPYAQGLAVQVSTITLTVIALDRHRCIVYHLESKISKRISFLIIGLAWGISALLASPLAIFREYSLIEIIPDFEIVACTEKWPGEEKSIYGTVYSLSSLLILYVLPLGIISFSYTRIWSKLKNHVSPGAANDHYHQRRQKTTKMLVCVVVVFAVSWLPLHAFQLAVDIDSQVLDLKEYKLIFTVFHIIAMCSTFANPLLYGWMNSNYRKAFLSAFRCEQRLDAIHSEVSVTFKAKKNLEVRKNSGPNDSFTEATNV
# Description: The purpose of this example is to test the activity, or potency, of the PYY compounds in vitro. The Y2 in vitro potency is the measure of the activation of the human Y2 receptor subtype in a whole cell assay.
# Actone Functional Potency Assay
# The Neuropeptide Y (NPY) receptors are Gi-coupled seven trans-membrane receptors that mainly signal through the cAMP dependent pathway by inhibiting adenylate cyclase activity which results in a decrease of cAMP production from ATP. The Actone assay is based on a modified calcium channel that has a selective binding for cAMP, resulting in cellular calcium influx, detected by a calcium responsive dye. In order to measure decreased levels of cAMP, as result of NPY receptor activation, the β1/β2-adrenoreceptor agonist, isoproterenol, is added to activate adenylate cyclase and increases cAMP levels in the cell. Decreased cellular calcium concentrations, reflecting a decrease of cAMP levels due to NPY receptor activation, is detected as a decrease in fluorescence from the calcium sensitive dye.
# [3] = target: T3, human Y4 receptor (Homo sapiens, UniProt P50391); experiment: Scintillation proximity assay (SPA) receptor binding, Y4; conditions: membranes of CHO-K1 cells, [125I]-Pancreatic Polypeptide
# T3 construct: expressed in transfected cells; host or cells: CHO-K1 (membrane preparation)
# Procedure: as §1, §2, §3, §4, §5, §6, §7
# T3 sequence (P50391 whole entry): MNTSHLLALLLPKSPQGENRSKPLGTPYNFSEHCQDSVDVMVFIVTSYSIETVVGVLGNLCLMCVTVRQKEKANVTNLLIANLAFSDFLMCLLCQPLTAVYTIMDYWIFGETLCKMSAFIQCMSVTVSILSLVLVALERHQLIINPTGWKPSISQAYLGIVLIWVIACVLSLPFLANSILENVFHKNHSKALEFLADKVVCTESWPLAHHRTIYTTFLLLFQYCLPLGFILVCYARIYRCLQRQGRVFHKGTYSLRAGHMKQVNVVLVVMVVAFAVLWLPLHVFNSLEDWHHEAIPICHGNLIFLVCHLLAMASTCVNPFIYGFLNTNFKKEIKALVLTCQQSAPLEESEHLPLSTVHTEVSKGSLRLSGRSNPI
Compound,Ki [1] [nM],EC50 [2] [nM],Ki ([3]; Y4 Ki) [nM],Ki ([3]; read-out: Y4 Ki) [nM],"Ki ([1]; membranes of BHK-21 cells, [125I]-PYY(1-36), read-out: Y1 Ki) [nM]"
"CC(C)CC(=O)N[C@@H](CCCNC(=N)N)C(=O)N1CCC[C@H]1C(=O)N[C@@H](CCC(=O)O)C(=O)N[C@@H](CCCCNC(=O)CC[C@H](NC(=O)CCCCCCCCCCCCCCCCC(=O)O)C(=O)O)C(=O)N1CCC[C@H]1C(=O)N[C@H](C(=O)N[C@@H](CCC(=O)O)C(=O)N[C@@H](CC(=O)O)C(=O)N[C@@H](C)C(=O)N[C@@H](CO)C(=O)N1CCC[C@H]1C(=O)N[C@@H](CCC(=O)O)C(=O)N[C@@H](CCC(=O)O)C(=O)N[C@@H](CC(C)C)C(=O)N[C@@H](CCC(N)=O)C(=O)N[C@@H](CCCNC(=N)N)C(=O)N[C@@H](Cc1ccc(O)cc1)C(=O)N[C@@H](Cc1ccc(O)cc1)C(=O)N[C@@H](CCC(N)=O)C(=O)N[C@@H](CO)C(=O)N[C@@H](CC(C)C)C(=O)N[C@@H](CCCNC(=N)N)C(=O)N[C@@H](Cc1c[nH]cn1)C(=O)N[C@@H](Cc1ccc(O)cc1)C(=O)N[C@@H](Cc1ccc(O)cc1)C(=O)N[C@@H](CC(N)=O)C(=O)N[C@@H](Cc1c[nH]c2ccccc12)C(=O)N[C@@H](CC(C)C)C(=O)N[C@H](C(=O)N[C@@H](CCCNC(=N)N)C(=O)N[C@@H](CCC(N)=O)C(=O)N[C@@H](CCCNC(=N)N)C(=O)N[C@@H](Cc1ccc(O)cc1)C(N)=O)[C@@H](C)O)[C@@H](C)O [Compound 43, N{alpha-4}-(3-Methylbutanoyl)-N{Epsilon-7}-[(4S)-4-carboxy-4-(17-carboxy-heptadecanoylamino)butanoyl]-[Arg4,Lys7,Thr9,Gln18,Gln22,Tyr28,Trp30,Leu31]hPYY(4-36)]",> 10000,0.77,–,–,–
"CC(C)CC(=O)N[C@@H](CCCNC(=N)N)C(=O)N1CCC[C@H]1C(=O)N[C@@H](CCC(=O)O)C(=O)N[C@@H](C)C(=O)N1CCC[C@H]1C(=O)NCC(=O)N[C@@H](CCCCNC(=O)COCCOCCNC(=O)COCCOCCNC(=O)CC[C@H](NC(=O)CCCCCCCCCCCCCCCCC(=O)O)C(=O)O)C(=O)N[C@@H](CC(=O)O)C(=O)N[C@@H](C)C(=O)N[C@@H](CO)C(=O)N1CCC[C@H]1C(=O)N[C@@H](CCC(=O)O)C(=O)N[C@@H](CCC(=O)O)C(=O)N[C@@H](CC(C)C)C(=O)N[C@@H](CCC(N)=O)C(=O)N[C@@H](CCCNC(=N)N)C(=O)N[C@@H](Cc1ccc(O)cc1)C(=O)N[C@@H](Cc1ccc(O)cc1)C(=O)N[C@@H](CCC(=O)O)C(=O)N[C@@H](CO)C(=O)N[C@@H](CC(C)C)C(=O)N[C@@H](CCCNC(=N)N)C(=O)N[C@@H](Cc1c[nH]cn1)C(=O)N[C@@H](Cc1ccc(O)cc1)C(=O)N[C@@H](Cc1ccc(O)cc1)C(=O)N[C@@H](CC(N)=O)C(=O)N[C@@H](Cc1c[nH]c2ccccc12)C(=O)N[C@@H](CC(C)C)C(=O)N[C@H](C(=O)N[C@@H](CCCNC(=N)N)C(=O)N[C@@H](CCC(N)=O)C(=O)N[C@@H](CCCNC(=N)N)C(=O)N[C@@H](Cc1ccc(O)cc1)C(N)=O)[C@@H](C)O [Compound 51, N{alpha-4}-(3-Methylbutanoyl)-N{Epsilon-10}-[2-[2-[2-[[2-[2-[2-[[(4S)-4-carboxy-4-(17-carboxyheptadecanoylamino)butanoyl]amino]ethoxy]ethoxy]acetyl]-amino]ethoxy]ethoxy]acetyl]-[Arg4,Lys10,Gln18,Glu22,Tyr28,Trp30,Leu31]-PYY(4-36)]",2410,–,> 10000,–,–
"CC(C)CC(=O)N[C@@H](CCCNC(=N)N)C(=O)N1CCC[C@H]1C(=O)N[C@@H](CCC(=O)O)C(=O)N[C@@H](C)C(=O)N1CCC[C@H]1C(=O)NCC(=O)N[C@@H](CCCCNC(=O)COCCOCCNC(=O)COCCOCCNC(=O)CC[C@H](NC(=O)CCCCCCCCCCCCCCCCC(=O)O)C(=O)O)C(=O)N[C@@H](CC(=O)O)C(=O)N[C@@H](C)C(=O)N[C@@H](CO)C(=O)N1CCC[C@H]1C(=O)N[C@@H](CCC(=O)O)C(=O)N[C@@H](CCC(=O)O)C(=O)N[C@@H](CC(C)C)C(=O)N[C@@H](CCC(N)=O)C(=O)N[C@@H](CCCNC(=N)N)C(=O)N[C@@H](Cc1ccc(O)cc1)C(=O)N[C@@H](Cc1ccc(O)cc1)C(=O)N[C@@H](C)C(=O)N[C@@H](CCC(=O)O)C(=O)N[C@@H](CC(C)C)C(=O)N[C@@H](CCCNC(=N)N)C(=O)N[C@@H](Cc1c[nH]cn1)C(=O)N[C@@H](Cc1ccc(O)cc1)C(=O)N[C@@H](Cc1ccc(O)cc1)C(=O)N[C@@H](CC(N)=O)C(=O)N[C@@H](Cc1c[nH]c2ccccc12)C(=O)N[C@@H](CC(C)C)C(=O)N[C@H](C(=O)N[C@@H](CCCNC(=N)N)C(=O)N[C@@H](CCC(N)=O)C(=O)N[C@@H](CCCNC(=N)N)C(=O)N[C@@H](Cc1ccc(O)cc1)C(N)=O)[C@@H](C)O [Compound 52, N{alpha-4}-(3-Methylbutanoyl)-N{Epsilon-10}-[2-[2-[2-[[2-[2-[2-[[(4S)-4-carboxy-4-(17-carboxyheptadecanoylamino)butanoyl]amino]ethoxy]ethoxy]acetyl]amino]-ethoxy]ethoxy]acetyl]-[Arg4,Lys10,Gln18,Glu23,Tyr28,Trp30,Leu31]-PYY(4-36)]",–,–,–,5690,> 10000
"CC(C)CC(=O)N[C@@H](CCCNC(=N)N)C(=O)N1CCC[C@H]1C(=O)N[C@@H](CCC(=O)O)C(=O)N[C@@H](C)C(=O)N1CCC[C@H]1C(=O)N1CCC[C@H]1C(=O)N[C@@H](CCCCNC(=O)CC[C@H](NC(=O)COCCOCCNC(=O)CC[C@H](NC(=O)CCCCCCCCCCCCCCCCC(=O)O)C(=O)O)C(=O)O)C(=O)N[C@@H](CC(=O)O)C(=O)N[C@@H](C)C(=O)N[C@@H](CO)C(=O)N1CCC[C@H]1C(=O)N[C@@H](CCC(=O)O)C(=O)N[C@@H](CCC(=O)O)C(=O)N[C@@H](CC(C)C)C(=O)N[C@@H](CCC(N)=O)C(=O)N[C@@H](CCCNC(=N)N)C(=O)N[C@@H](Cc1ccc(O)cc1)C(=O)N[C@@H](Cc1ccc(O)cc1)C(=O)N[C@@H](CCC(=O)O)C(=O)N[C@@H](CO)C(=O)N[C@@H](CC(C)C)C(=O)N[C@@H](CCCNC(=N)N)C(=O)N[C@@H](Cc1c[nH]cn1)C(=O)N[C@@H](Cc1ccc(O)cc1)C(=O)N[C@@H](Cc1ccc(O)cc1)C(=O)N[C@@H](CC(N)=O)C(=O)N[C@@H](Cc1c[nH]c2ccccc12)C(=O)N[C@@H](CC(C)C)C(=O)N[C@H](C(=O)N[C@@H](CCCNC(=N)N)C(=O)N[C@@H](CCC(N)=O)C(=O)N[C@@H](CCCNC(=N)N)C(=O)N[C@@H](Cc1ccc(O)cc1)C(N)=O)[C@@H](C)O [Compound 54, N{alpha-4}-(3-Methylbutanoyl)-N{Epsilon-10}-[(4S)-4-carboxy-4-[[2-[2-[2-[[(4S)-4-carboxy-4-(17-carboxyheptadecanoylamino)butanoyl]amino]ethoxy]ethoxy]-acetyl]amino]butanoyl]-[Arg4,Pro9,Lys10,Gln18,Glu22,Tyr28,Trp30,Leu31]-PYY(4-36)]",–,1.6,–,–,–
